Source: US4317768A, “Dihydropyridine derivatives as stabilizers for vinyl chloride polymers” (priority 1977, dated 1982)
Entries after “also recorded” stand apart in the source; their conditions may differ.

Columns and labels:
[1] = Photostabilizing power, tetrahydrofuran solution of plates exposed to the sun, French Pharmacopeia
Experimental: The photostabilizing power of the compounds of the invention was studied by exposing to the sun polyvinyl chloride plates which had been stabilized either by a dihydropyridine of the invention or by 2-phenyl-indole, or again by 2-(3'-methoxy-4'-hydroxy)-indole. This last product is an extremely valuable thermostabilizer for thermoplastic resins and is described in British Pat. No. 1,489,685.
The resin given hereunder was prepared by mixing on cylinders at 160° C.:
The plates of stabilized polyvinyl chloride, together with a plate which had not been stabilized, were stood in the sun under the same conditions and at the same time. Their colour was measured after 6 hours and 12 hours of exposure.
The coloration of the plates was determined according to two methods:
On a solution of these plates in tetrahydrofuran, the coloration of th solution being measured according to the French Pharmacopeia (IXth edition, II-338).

[2] = Static thermostability (GARDNER method), rigid PVC sheets, 185° C., equimolecular quantities; settings: 1.55×10^-3 mol
In short: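 Stabilizer at 1.55×10^-3 mol (equimolar with 2-phenyl-indole) mixed with PVC and other usual ingredients, calendered at 160° C. into rigid sheets. Sheets oven-aged at 185° C., sampled every 6 min to 24 min, then every 3 min to 42 min or carbonization. Coloration scored on the GARDNER scale.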

[3] = Comparison with 1,4-butanediol-β-aminocrotonate and methyl-β-aminocrotonate, rigid co-polymer, 185° C.; settings: 0.5 part
Experimental: (a) Comparison with 1,4-butanediol-β-aminocrotonate and with methyl-β-aminocrotonate.
The following rigid co-polymer was prepared:
(§1) The sheets were heated in a ventilated oven at 185° C. and the following results were obtained: […]

[4] = Comparison with stabilizer G1, 0.3 part, 185° C.
[5] = Comparison with 2-phenyl-indole, vinyl chloride-vinyl acetate co-polymer, 185° C.; settings: 0.3 part
Experimental: (c) Comparison with 2-phenyl-indole
A comparative test was made using the following compound:
as §1

[6] = Antioxidant power on a polyvinyl chloride resin, GARDNER method, 185° C.
Experimental: By direct comparison, on a polyvinyl chloride resin, of the antioxidant power of Compound 1 of the invention and that of an antioxidant known as one of the most valuable and frequently used in polyvinyl chloride, namely 2,6-diterbutyl-4-methyl-phenol.
The antioxidant power of Compound 1 was compared to that of 2,6-diterbutyl-4-methyl-phenol (Compound 2) by using the following resin:
The study was carried out according to the GARDNER method, the samples being removed from an oven at 185° C. every 10 minutes over a period of 80 minutes.
The signs + and - have the same meanings as in the previous table and > 2 means that the coloration lies between 2 and 2+.

[7] = Comparison with stabilizer G1, rigid co-polymer, 0.5 part, 185° C.
Source text: (b) Comparison with stabilizer G1
Stabilizer G1 is a mixture of 1,4-butanediol-β-aminocrotonate and of β-aminocrotonate of alcohols containing from 16 to 18 carbon atoms.

[8] = Colour of the resin after each passage in a blower-extruder; settings: blower-extruder
Experimental: (2) Examination of the colour of the resin after each passage (3 in all) in a blower-extruder, the mould being a 250 ml cylindrical flask.
Four resins where tested, the first containing 0.2% of 2-phenyl-indole and the others 0.2%, 0.03% and 0.015% of compound 1 respectively.

[9] = Antioxidant power on a polyvinyl chloride resin, GARDNER method, 185° C.; remark: listed apart in the source

CC1=C(C(=O)OCc2ccccc2)CC(C(=O)OCc2ccccc2)=C(C)N1 [Compound 21, 2,6-Dimethyl-3,5-dicarbobenzyloxy-1,4-dihydropyridine]
Coloration of the plates FRENCH PHARMACOPEIA ([1]; exposure to sun 0): JV6
Coloration of the plates FRENCH PHARMACOPEIA ([1]; exposure to sun 6h): JV6
Coloration of the plates FRENCH PHARMACOPEIA ([1]; exposure to sun 12h): JV5
coloration, GARDNER scale ([2]; 0 min): 1
coloration, GARDNER scale ([2]; 6 min): 1
coloration, GARDNER scale ([2]; 12 min): 1
coloration, GARDNER scale ([2]; 18 min): 4
coloration, GARDNER scale ([2]; 24 min): 6
coloration, GARDNER scale ([2]; 27 min): 8
coloration, GARDNER scale ([2]; 30 min): 11
coloration, GARDNER scale ([2]; 33 min): 15
coloration, GARDNER scale ([2]; 36 min): Burnt
coloration, GARDNER scale ([3]; 0 min): 1
coloration, GARDNER scale ([3]; 2 min): 1
coloration, GARDNER scale ([3]; 4 min): 4
coloration, GARDNER scale ([3]; 6 min): 6
coloration, GARDNER scale ([3]; 8 min): 11
coloration, GARDNER scale ([3]; 10 min): 13
coloration, GARDNER scale ([3]; 12 min): 17
coloration, GARDNER scale ([4]; 0 min): 1
coloration, GARDNER scale ([4]; 2 min): 1
coloration, GARDNER scale ([4]; 4 min): 2
coloration, GARDNER scale ([4]; 6 min): 4
coloration, GARDNER scale ([4]; 8 min): 7
coloration, GARDNER scale ([4]; 10 min): 12
coloration, GARDNER scale ([4]; 12 min): 16
coloration, GARDNER scale ([4]; 14 min): 18
coloration, GARDNER scale ([5]; 0 min): 1
coloration, GARDNER scale ([5]; 2 min): 1
coloration, GARDNER scale ([5]; 4 min): 2
coloration, GARDNER scale ([5]; 6 min): 3
coloration, GARDNER scale ([5]; 8 min): 7
coloration, GARDNER scale ([5]; 10 min): 10
coloration, GARDNER scale ([5]; 12 min): 12
coloration, GARDNER scale ([5]; 14 min): 16

C=CCOC(=O)C1=C(C)NC(C)=C(C(=O)OCC=C)C1 [Compound 1, 2,6-Dimethyl-3,5-dicarboallyloxy-1,4-dihydropyridine]
coloration, GARDNER scale ([6]; 0.05 part, 0 min): 1
coloration, GARDNER scale ([6]; 0.05 part, 10 min): 1
coloration, GARDNER scale ([6]; 0.05 part, 60 min): 7
coloration, GARDNER scale ([6]; 0.05 part, 70 min): 8
coloration, GARDNER scale ([6]; 0.1 part, 0 min): 1
coloration, GARDNER scale ([6]; 0.1 part, 10 min): 1
coloration, GARDNER scale ([6]; 0.1 part, 30 min): < 2
coloration, GARDNER scale ([6]; 0.1 part, 60 min): 7
coloration, GARDNER scale ([6]; 0.1 part, 70 min): 7
coloration, GARDNER scale ([6]; 0.2 part, 0 min): 1
coloration, GARDNER scale ([6]; 0.2 part, 10 min): 1
coloration, GARDNER scale ([6]; 0.2 part, 20 min): 1
coloration, GARDNER scale ([6]; 0.2 part, 40 min): 2
coloration, GARDNER scale ([6]; 0.2 part, 50 min): 3
coloration, GARDNER scale ([6]; 0.2 part, 60 min): 5
coloration, GARDNER scale ([6]; 0.2 part, 70 min): > 6
coloration, GARDNER scale ([6]; 0.3 part, 0 min): 1
coloration, GARDNER scale ([6]; 0.3 part, 10 min): 1
coloration, GARDNER scale ([6]; 0.3 part, 20 min): 1
coloration, GARDNER scale ([6]; 0.3 part, 30 min): 1
coloration, GARDNER scale ([6]; 0.3 part, 40 min): 2
coloration, GARDNER scale ([6]; 0.3 part, 50 min): > 2
coloration, GARDNER scale ([6]; 0.3 part, 60 min): 8
coloration, GARDNER scale ([6]; 0.3 part, 70 min): 8
coloration, GARDNER scale ([6]; 0.4 part, 0 min): 1
coloration, GARDNER scale ([6]; 0.4 part, 10 min): 1
coloration, GARDNER scale ([6]; 0.4 part, 20 min): 1
coloration, GARDNER scale ([6]; 0.4 part, 30 min): 1
coloration, GARDNER scale ([6]; 0.4 part, 60 min): 4
coloration, GARDNER scale ([6]; 0.4 part, 70 min): 8
coloration, GARDNER scale ([6]; 0.5 part, 0 min): 1
coloration, GARDNER scale ([6]; 0.5 part, 10 min): 1
coloration, GARDNER scale ([6]; 0.5 part, 20 min): 1
coloration, GARDNER scale ([6]; 0.5 part, 30 min): > 1
coloration, GARDNER scale ([6]; 1.0 part, 0 min): 1
coloration, GARDNER scale ([6]; 1.0 part, 10 min): 1
coloration, GARDNER scale ([6]; 1.0 part, 20 min): 1
coloration, GARDNER scale ([6]; 1.0 part, 30 min): 1
coloration, GARDNER scale ([6]; 1.0 part, 50 min): 4
coloration, GARDNER scale ([6]; 1.0 part, 60 min): 8
coloration, GARDNER scale ([7]; 0 min): 1
coloration, GARDNER scale ([7]; 2 min): 1
coloration, GARDNER scale ([7]; 4 min): 2
coloration, GARDNER scale ([7]; 6 min): 6
coloration, GARDNER scale ([7]; 8 min): 10
coloration, GARDNER scale ([7]; 10 min): 13
coloration, GARDNER scale ([7]; 12 min): 17
stability of colour compared to 2-phenyl-indole, in words [8]: markedly superior; also recorded: at all times superior to 2-phenyl-indole used at a concentration of 0.2%
stability of colour compared to 2-phenyl-indole, in words ([8]; listed as compound 1): excellent behaviour
antioxidant power, Compound 1 vs Compound Z, in words [9]: superior to Compound Z at every concentration
